PubChem BioAssay AID1259408 (Genetic Toxicology Data Bank (GENE-TOX), 2018)
The source made the active and inactive calls. The rule behind the calls is not given here.

System: GENE-TOX genotoxicity assays, various organisms and cells
Experiment: GENE-TOX mutagenicity studies
Conditions: for call: Assay Type: In vivo carcinogenicity studies
[1] = Species/Cell Type: Saccharomyces cerevisiae, Assay Type: Mitotic recombination or gene conversion, Assay Code: YEC-, Evaluation Type: Evaluation A (Pre-1980)
[2] = Species/Cell Type: Drosophila melanogaster, Assay Type: Sex-linked recessive lethal gene mutation, Assay Code: SRLT, Evaluation Type: Evaluation A (Pre-1980)
[3] = Species/Cell Type: Salmonella typhimurium (one or more of the five standard strains: TA98, TA100, TA1535, TA1537, and TA1538), Assay Type: Histidine reverse gene mutation, Ames assay, Assay Code: SAL+*, Activation: With metabolic activation, Evaluation Type: Evaluation A (Pre-1980)
[4] = Species/Cell Type: Salmonella typhimurium (one or more of the five standard strains: TA98, TA100, TA1535, TA1537, and TA1538), Assay Type: Histidine reverse gene mutation, Ames assay, Assay Code: SALT, Evaluation Type: Evaluation A (Pre-1980)
[5] = Species/Cell Type: Human lymphocytes, Assay Type: Sister-chromatid exchange (SCE) in vivo, Assay Code: SCY+, Evaluation Type: Evaluation B (Post-1980)
[6] = Species/Cell Type: Mammalian polychromatic erythrocytes, Assay Type: Micronucleus test, chromosome aberrations, Assay Code: MNTT, Evaluation Type: Evaluation B (Post-1980)
[7] = Species/Cell Type: Nonhuman, Assay Type: Sister-chromatid exchange (SCE) in vivo, Assay Code: SC3+, Evaluation Type: Evaluation B (Post-1980)
[8] = Species/Cell Type: Bacillus subtilis (H17 vs M45), Assay Type: Rec-assay, spot test, DNA effects (bacterial DNA repair), Assay Code: REW+, Evaluation Type: Evaluation A (Pre-1980)
[9] = Species/Cell Type: Nonhuman, Assay Code: CCG+, Evaluation Type: Evaluation A (Pre-1980)
[10] = Species/Cell Type: Rodents, Sex: Male, Assay Type: Dominant lethal test, Assay Code: DLT-, Evaluation Type: Evaluation A (Pre-1980)
[11] = Species/Cell Type: Human, Assay Type: Sister-chromatid exchange (SCE) in vitro, Assay Code: SC1+D, Dose Response: With dose response, Evaluation Type: Evaluation B (Post-1980)
[12] = Species/Cell Type: Salmonella typhimurium (one or more of the five standard strains: TA98, TA100, TA1535, TA1537, and TA1538), Assay Type: Histidine reverse gene mutation, Ames assay, Assay Code: SAL+, Evaluation Type: Evaluation A (Pre-1980)

## O=c1[nH]c2c(c(=O)n1C1CCCCC1)CCC2 (tested in a mixture with another compound)
[1]
  mutagenic call: inactive; negative

## CC(Br)Br
[2]
  mutagenic call: no conclusion
Species/Cell Type: Escherichia coli polA (W3119 vs P3478), Assay Type: Rec-assay, DNA effects (bacterial DNA repair), Assay Code: RE1+, Evaluation Type: Evaluation A (Pre-1980)
  mutagenic call: active; positive
Species/Cell Type: Tradescantia species, Assay Type: Gene mutation, Assay Code: TRM-, Evaluation Type: Evaluation A (Pre-1980)
  mutagenic call: inactive; negative

## COc1cc2c(c3oc(=O)c4c(c13)C(O)CC4O)[C@@H]1C=CO[C@@H]1O2 (stereo partly specified)
[3]
  mutagenic call: active; positive

## COc1cc2c(c3c(C)cc4ccccc4c13)CCC2=O
[3]
  mutagenic call: active; positive

## O=S1(=O)CC=CC1
Species/Cell Type: Nonhuman, Assay Code: CCG-, Evaluation Type: Evaluation A (Pre-1980)
  call: inactive; negative

## CCOc1nc2c(c(=O)n(C)c(=O)n2C)n1C
Species/Cell Type: Allium cepa, Assay Type: Chromosome aberrations, Assay Code: ALC+D, Dose Response: With dose response, Evaluation Type: Evaluation A (Pre-1980)
  mutagenic call: active; positive
Species/Cell Type: Arabidopsis species, Assay Type: Gene mutation, Assay Code: ARM+, Evaluation Type: Evaluation A (Pre-1980)
  mutagenic call: active; positive
Species/Cell Type: Human lymphocytes or leukocytes, Assay Type: Chromosome aberrations in vitro, Assay Code: CY7+, Evaluation Type: Evaluation A (Pre-1980)
  mutagenic call: active; positive
Species/Cell Type: Nonhuman, Assay Type: Chromosome aberrations in vitro, Assay Code: CY&+, Evaluation Type: Evaluation A (Pre-1980)
  mutagenic call: active; positive
Species/Cell Type: Nonhuman, Assay Type: Sister-chromatid exchange (SCE) in vitro, Assay Code: SC2-, Evaluation Type: Evaluation B (Post-1980)
  mutagenic call: inactive; negative
Species/Cell Type: Nonhuman, Assay Type: Sister-chromatid exchange (SCE) in vitro, Assay Code: SC2T, Evaluation Type: Evaluation A (Pre-1980)
  mutagenic call: no conclusion
Species/Cell Type: Vicia faba, Assay Type: Chromosome aberrations, Assay Code: VIC+, Evaluation Type: Evaluation A (Pre-1980)
  mutagenic call: active; positive

## COc1cc(NO)ccc1N=Nc1ccccc1
[4]
  mutagenic call: no conclusion

## O=C1NC(=O)C(c2ccccc2)(c2ccccc2)N1
[5]
  mutagenic call: active; positive
Species/Cell Type: Human, Sex: Male, Assay Type: Sperm morphology, Assay Code: SPHT, Evaluation Type: Evaluation A (Pre-1980)
  mutagenic call: no conclusion
Species/Cell Type: Mammalian polychromatic erythrocytes, Assay Type: Micronucleus test, chromosome aberrations, Assay Code: MNT+, Evaluation Type: Evaluation B (Post-1980)
  mutagenic call: active; positive
[6]
  mutagenic call: no conclusion
[7]
  mutagenic call: active; positive

## CC(C)c1ccccc1OC(=O)N(C)N=O
Species/Cell Type: Bacillus subtilis (H17 vs M45T), Assay Type: Rec-assay, spot test, DNA effects (bacterial DNA repair), Assay Code: REX+, Evaluation Type: Evaluation A (Pre-1980)
  mutagenic call: active; positive
Species/Cell Type: Escherichia coli WP2, Assay Type: Tryptophan reverse gene mutation, Assay Code: WP2+, Evaluation Type: Evaluation A (Pre-1980)
  mutagenic call: active; positive

## O=[N+]([O-])[O-].O=[N+]([O-])[O-].[Mn+2]
[8]
  mutagenic call: active; positive

## OCCN(CCO)c1nc(-c2cccs2)nc2ccccc12
[4]
  mutagenic call: no conclusion

## CC(=O)OCCCCCCBr
[6]
  mutagenic call: no conclusion

## C/C(=C/c1ccc(SC#N)cc1)[N+](=O)[O-]
[8]
  mutagenic call: active; positive

## Clc1cc2c(cc1Cl)Oc1cc(Cl)c(Cl)cc1O2
[6]
  mutagenic call: no conclusion
[9]
  call: active; positive
Species/Cell Type: Nonhuman, Assay Type: Sister-chromatid exchange (SCE) in vivo, Assay Code: SC3T, Evaluation Type: Evaluation B (Post-1980)
  mutagenic call: no conclusion
[10]
  mutagenic call: inactive; negative

## Cc1ccc2nc3sc(=O)sc3nc2c1
[1]
  mutagenic call: inactive; negative

## O[C@H]1C=Cc2cc3c(ccc4ccccc43)cc2[C@@H]1O
Species/Cell Type: Chinese hamster lung (V79) cells, Assay Type: Forward gene mutation at the HPRT or ouabain locus, Assay Code: V79-*, Activation: With metabolic activation, Evaluation Type: Evaluation A (Pre-1980)
  mutagenic call: inactive; negative
Species/Cell Type: Nonhuman, Assay Code: CCGT, Evaluation Type: Evaluation A (Pre-1980)
  call: no conclusion
Species/Cell Type: Nonhuman, Assay Type: Sister-chromatid exchange (SCE) in vitro, Assay Code: SC2+D, Dose Response: With dose response, Evaluation Type: Evaluation B (Post-1980)
  mutagenic call: active; positive
[4]
  mutagenic call: no conclusion

## CN(C)/N=N/c1nc[nH]c1C(N)=O
Species/Cell Type: Chinese hamster ovary (CHO) cells, Assay Type: Forward gene mutation at the HPRT locus, Assay Code: CHO+, Evaluation Type: Evaluation B (Post-1980)
  mutagenic call: active; positive
Species/Cell Type: Drosophila melanogaster, Assay Type: Sex-linked recessive lethal gene mutation, Assay Code: SRL+, Evaluation Type: Evaluation A (Pre-1980)
  mutagenic call: active; positive
[5]
  mutagenic call: active; positive
[9]
  call: active; positive
Species/Cell Type: Nonhuman, Assay Type: Sister-chromatid exchange (SCE) in vitro, Assay Code: SC2+, Evaluation Type: Evaluation B (Post-1980)
  mutagenic call: active; positive

## CC(=O)O[C@]1(C(C)=O)CC[C@H]2[C@@H]3C[C@H](C)C4=CC(=O)CC[C@]4(C)[C@H]3CC[C@@]21C
[11]
  mutagenic call: active; positive
Species/Cell Type: Human, Sex: Male, Assay Type: Sperm morphology, Assay Code: SPH+, Evaluation Type: Evaluation A (Pre-1980)
  mutagenic call: active; positive
[7]
  mutagenic call: active; positive

## Cc1ccc(N)cc1O
Species/Cell Type: Mammalian polychromatic erythrocytes, Assay Type: Micronucleus test, chromosome aberrations, Assay Code: MNTT, Evaluation Type: Evaluation A (Pre-1980)
  mutagenic call: no conclusion

## C[C@@H]1Cc2c(Cl)cc(C(=O)NC(Cc3ccccc3)C(=O)O)c(O)c2C(=O)O1 (stereo partly specified)
Species/Cell Type: Nonhuman, Assay Type: Sister-chromatid exchange (SCE) in vivo, Assay Code: SC3-, Evaluation Type: Evaluation B (Post-1980)
  mutagenic call: inactive; negative

## CCCCc1nc(Cl)c(CO)n1Cc1ccc(-c2ccccc2-c2nnn[nH]2)cc1
[2]
  mutagenic call: no conclusion
Species/Cell Type: Drosophila melanogaster, Sex: Male, Assay Type: Heritable translocation test, chromosome aberrations, Assay Code: DHTT, Evaluation Type: Evaluation A (Pre-1980)
  mutagenic call: no conclusion

## NNC(=O)COc1ccc(Br)cc1CN1CCCCC1
Species/Cell Type: Saccharomyces cerevisiae, Assay Type: Reverse gene mutation, Assay Code: YERT, Evaluation Type: Evaluation A (Pre-1980)
  mutagenic call: no conclusion

## CCOC(=O)Nc1ccc(-c2c3ccccc3c3cc(N)ccc3[n+]2C)cc1
[12]
  mutagenic call: active; positive

## CCCCCCCC/C=C/CCCCCCCC(=O)OCCOCC(OCCO)C1OCC(OCCO)C1OCCO (stereo unspecified)
Species/Cell Type: Human lymphocytes, Assay Type: Sister-chromatid exchange (SCE) in vitro, Assay Code: SCLT, Evaluation Type: Evaluation B (Post-1980)
  mutagenic call: no conclusion
Species/Cell Type: Human, Assay Type: Sister-chromatid exchange (SCE) in vitro, Assay Code: SC1T, Evaluation Type: Evaluation B (Post-1980)
  mutagenic call: no conclusion

## c1cncc([C@@H]2CCCCN2)c1
Species/Cell Type: Nonhuman, Assay Type: Sister-chromatid exchange (SCE) in vitro, Assay Code: SC2T, Evaluation Type: Evaluation B (Post-1980)
  mutagenic call: no conclusion

## O=c1[nH]c(=O)n([C@H]2C[C@H](O)[C@@H](COP(=O)(O)O)O2)cc1[N+](=O)[O-]
Species/Cell Type: Human lymphocytes, Assay Type: Sister-chromatid exchange (SCE) in vitro, Assay Code: SCL+D, Dose Response: With dose response, Evaluation Type: Evaluation B (Post-1980)
  mutagenic call: active; positive
[11]
  mutagenic call: active; positive

## CCCCN(N=O)C(N)=O
Species/Cell Type: Arabidopsis species, Assay Type: Gene mutation, Assay Code: ARM+D, Dose Response: With dose response, Evaluation Type: Evaluation A (Pre-1980)
  mutagenic call: active; positive
Species/Cell Type: Chinese hamster ovary (CHO) cells, Assay Type: Forward gene mutation at the HPRT locus, Assay Code: CHO+D, Dose Response: With dose response, Evaluation Type: Evaluation A (Pre-1980)
  mutagenic call: active; positive
Species/Cell Type: Human diploid fibroblasts, Assay Type: Unscheduled DNA synthesis (UDS) in vitro, DNA effects, Assay Code: UDH-, Evaluation Type: Evaluation A (Pre-1980)
  mutagenic call: inactive; negative
Species/Cell Type: Nonhuman, Assay Type: Chromosome aberrations in vitro, Assay Code: CY&+D, Dose Response: With dose response, Evaluation Type: Evaluation A (Pre-1980)
  mutagenic call: active; positive
[9]
  call: active; positive
Species/Cell Type: Nonhuman, Assay Type: Sister-chromatid exchange (SCE) in vitro, Assay Code: SC2+D, Dose Response: With dose response, Evaluation Type: Evaluation A (Pre-1980)
  mutagenic call: active; positive
[10]
  mutagenic call: inactive; negative
Species/Cell Type: Saccharomyces cerevisiae, Assay Type: Mitotic recombination or gene conversion, Assay Code: YEC+, Evaluation Type: Evaluation A (Pre-1980)
  mutagenic call: active; positive
Species/Cell Type: Salmonella typhimurium, Escherichia coli, Serratia marcesens, Assay Type: Forward and reverse gene mutation, host-mediated assay, Assay Code: HMN+, Evaluation Type: Evaluation A (Pre-1980)
  mutagenic call: active; positive

## O=C(CCl)CCl
[2]
  mutagenic call: no conclusion
[12]
  mutagenic call: active; positive

## Cc1ccc(N2CC[N+](C)([O-])CC2)c2c(=O)c3ccc(Cl)cc3sc12
[4]
  mutagenic call: no conclusion
